Assay: mn = molality of the nth substance listed, in mol/kg
Settings: 100 kPa, Liquid; for speed of sound: Single path-length method; for mass density: Vibrating tube method

NCCCC(=O)O [4-aminobutanoic acid] + O
Settings	mass density [kg/m3]	speed of sound [m/s]
293.15 K, m1 = 0.09972	1000.99	1491.4
293.15 K, m1 = 0.1479	1002.31	1495.4
293.15 K, m1 = 0.1942	1003.57	1499.3
293.15 K, m1 = 0.2449	1004.94	1503.5
293.15 K, m1 = 0.2937	1006.23	1507.6
293.15 K, m1 = 0.3452	1007.58	1511.8
293.15 K, m1 = 0.3928	1008.82	1515.7
298.15 K, m1 = 0.09972	999.771	1505
298.15 K, m1 = 0.1479	1001.05	1508.9
298.15 K, m1 = 0.1942	1002.26	1512.7
298.15 K, m1 = 0.2449	1003.56	1516.8
298.15 K, m1 = 0.2937	1004.78	1520.7
298.15 K, m1 = 0.3452	1006.04	1524.8
298.15 K, m1 = 0.3928	1007.19	1528.7
303.15 K, m1 = 0.09972	998.354	1517
303.15 K, m1 = 0.1479	999.634	1520.8
303.15 K, m1 = 0.1942	1000.85	1524.4
303.15 K, m1 = 0.2449	1002.16	1528.4
303.15 K, m1 = 0.2937	1003.41	1532.2
303.15 K, m1 = 0.3452	1004.71	1536.2
303.15 K, m1 = 0.3928	1005.89	1539.9
308.15 K, m1 = 0.09972	996.682	1527.4
308.15 K, m1 = 0.1479	997.926	1531.1
308.15 K, m1 = 0.1942	999.104	1534.6
308.15 K, m1 = 0.2449	1000.37	1538.5
308.15 K, m1 = 0.2937	1001.56	1542.1
308.15 K, m1 = 0.3452	1002.8	1546
308.15 K, m1 = 0.3928	1003.92	1549.6
313.15 K, m1 = 0.09972	994.848	1536.3
313.15 K, m1 = 0.1479	996.089	1539.8
313.15 K, m1 = 0.1942	997.262	1543.2
313.15 K, m1 = 0.2449	998.525	1547
313.15 K, m1 = 0.2937	999.722	1550.5
313.15 K, m1 = 0.3452	1000.96	1554.3
313.15 K, m1 = 0.3928	1002.08	1557.8
318.15 K, m1 = 0.09972	992.851	1543.7
318.15 K, m1 = 0.1479	994.097	1547.1
318.15 K, m1 = 0.1942	995.285	1550.4
318.15 K, m1 = 0.2449	996.567	1554
318.15 K, m1 = 0.2937	997.781	1557.5
318.15 K, m1 = 0.3452	999.045	1561.1
318.15 K, m1 = 0.3928	1000.2	1564.5
